The structures appear in SMILES notation. In brackets after ≈: the same amount, converted by molar mass.

The test system of the assay is A2780. The assay can be described thus: Cytotoxicity against human A2780 cells. The class given is functional, cell-based.
By IC50 is commonly meant the concentration that inhibits the measured activity by half. Turning to `COc1ccc([C@@H]2CC(=O)c3c(cc(O)c(C/C=C(\C)CCC=C(C)C)c3O)O2)cc1`, the concentration for half-maximal inhibition (IC50) was found to be 17 µg/mL (≈ 40.2 µM).
Then `CC(C)=CCC/C(C)=C/Cc1c(O)cc2c(c1O)C(=O)[C@H](O)[C@@H](c1ccc(O)cc1)O2` [BONANNIOL A], with 25 µg/mL (≈ 58.9 µM); and `CC(C)=CCC/C(C)=C/Cc1c(O)cc2c(c1O)C(=O)C[C@@H](c1ccc(O)cc1)O2` [BONANNIONE A], with 12 µg/mL (≈ 29.4 µM); and `CC(C)=CCc1cc([C@@H]2CC(=O)c3c(cc(O)c(CC=C(C)C)c3O)O2)ccc1O` [MACARANGAFLAVANONE B], with 16 µg/mL (≈ 39.2 µM).
In turn, `CC(C)=CCC/C(C)=C/Cc1c(O)cc2c(c1O)C(=O)C[C@@H](c1ccc(O)c(O)c1)O2` [NYMPHAEOL A] gave an IC50 of 5.5 µg/mL (≈ 13 µM).
Molecule `CC(C)=CCC/C(C)=C/Cc1cc([C@@H]2CC(=O)c3c(cc(O)c(CC=C(C)C)c3O)O2)ccc1O` [SCHIZOLAENONE A] returned an IC50 of 10 µg/mL (≈ 21 µM).
Then `CC(C)=CCC/C(C)=C/Cc1cc([C@@H]2CC(=O)c3c(cc(O)c(CC=C(C)C)c3O)O2)cc(O)c1O` [SCHIZOLAENONE B], with 11 µg/mL (≈ 22.3 µM).

The record behind these values is ChEMBL document CHEMBL1158709, “Cytotoxic flavanones of Schizolaena hystrix from the Madagascar rainforest” (J Nat Prod, 2005).
